Test results reported in patent publication US9725465B2, “Biaryl acetamide compounds and methods of use thereof” (Ambit Biosciences Corporation, priority 2013, dated 2017).
Counter-ions that a name gives are not always drawn.

Biological target: FLT3-ITD (Homo sapiens (Human), UniProt P36888, INS600HVDFREYEYD)
Test: pFLT3 MSD assay, Ba/F3 FLT3-ITD
Assay type: cell-based
Settings: Ba/F3 FLT3-ITD cells, 2 hours, read-out: BaF3-FLT3-ITD pFlt3 IC50

Sequence of FLT3-ITD (P36888 other isoform, or with tags, fused parts or gaps limits assumed, stated change not applied): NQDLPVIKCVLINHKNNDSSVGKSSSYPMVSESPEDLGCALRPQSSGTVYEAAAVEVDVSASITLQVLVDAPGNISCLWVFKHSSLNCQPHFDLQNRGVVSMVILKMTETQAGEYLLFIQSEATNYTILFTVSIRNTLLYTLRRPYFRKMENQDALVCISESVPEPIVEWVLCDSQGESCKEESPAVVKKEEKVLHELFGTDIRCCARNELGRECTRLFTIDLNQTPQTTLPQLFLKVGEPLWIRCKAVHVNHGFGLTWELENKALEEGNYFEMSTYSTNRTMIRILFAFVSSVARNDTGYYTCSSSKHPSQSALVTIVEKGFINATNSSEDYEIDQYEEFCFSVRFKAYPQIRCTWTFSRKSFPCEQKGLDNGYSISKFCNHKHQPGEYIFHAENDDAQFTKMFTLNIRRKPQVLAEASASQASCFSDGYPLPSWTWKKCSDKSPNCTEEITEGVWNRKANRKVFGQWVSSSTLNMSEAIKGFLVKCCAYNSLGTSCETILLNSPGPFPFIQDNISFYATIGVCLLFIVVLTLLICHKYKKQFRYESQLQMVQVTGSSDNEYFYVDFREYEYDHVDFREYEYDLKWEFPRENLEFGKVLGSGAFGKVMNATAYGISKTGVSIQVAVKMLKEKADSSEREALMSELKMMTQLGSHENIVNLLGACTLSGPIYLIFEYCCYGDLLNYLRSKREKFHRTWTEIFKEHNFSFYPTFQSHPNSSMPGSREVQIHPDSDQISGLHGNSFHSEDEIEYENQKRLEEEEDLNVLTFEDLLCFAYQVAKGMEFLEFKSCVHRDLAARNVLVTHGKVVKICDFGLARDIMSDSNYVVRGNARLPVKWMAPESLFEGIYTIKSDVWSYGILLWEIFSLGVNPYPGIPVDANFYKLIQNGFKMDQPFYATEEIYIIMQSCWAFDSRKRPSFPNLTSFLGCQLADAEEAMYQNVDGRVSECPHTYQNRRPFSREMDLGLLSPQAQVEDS

Row | SMILES | IC50 [nM]
1 | CC(C)(c1cc(NC(=O)Cc2ccc(-c3cnc4[nH]ccc4c3)cc2F)no1)C(F)(F)F [Example 29, 2-(2-fluoro-4-(1H-pyrrolo[2,3-b]pyridin-5-yl)phenyl)-N-(5-(1,1,1-trifluoro-2-methylpropan-2-yl)isoxazol-3-yl)acetamide] | < 10
2 | O=C(Cc1ccc(-c2cnc3[nH]ccc3n2)cc1F)Nc1cc(C2(C(F)(F)F)CC2)on1 [Example 30, 2-(2-fluoro-4-(5H-pyrrolo[2,3-b]pyrazin-2-yl)phenyl)-N-(5-(1-(trifluoromethyl)cyclopropyl)isoxazol-3-yl)acetamide] | < 10
3 | CC(C)(C)c1cc(NC(=O)Cc2ccc(-c3cnc4[nH]ncc4c3)cc2)no1 [Example 31, 2-(4-(1H-pyrazolo[3,4-b]pyridin-5-yl)phenyl)-N-(5-(tert-butyl)isoxazol-3-yl)acetamide] | < 10
4 | CC(C)(C)c1cc(NC(=O)Cc2ccc(-c3cnc4[nH]ncc4c3)cc2F)no1 [Example 32, N-(5-(tert-butyl)isoxazol-3-yl)-2-(2-fluoro-4-(1H-pyrazolo[3,4-b]pyridin-5-yl)phenyl)acetamide] | < 10
5 | O=C(Cc1ccc(-c2cnc3[nH]ncc3c2)cc1F)Nc1cc(C2(C(F)(F)F)CC2)on1 [Example 33, 2-(2-fluoro-4-(1H-pyrazolo[3,4-b]pyridin-5-yl)phenyl)-N-(5-(1-(trifluoromethyl)cyclopropyl)isoxazol-3-yl)acetamide] | < 10
6 | CC(C)(c1cc(NC(=O)Cc2ccc(-c3cnc4[nH]ncc4c3)cc2F)no1)C(F)(F)F [Example 34, 2-(2-fluoro-4-(1H-pyrazolo[3,4-b]pyridin-5-yl)phenyl)-N-(5-(1,1,1-trifluoro-2-methylpropan-2-yl)isoxazol-3-yl)acetamide] | < 10
7 | COc1n[nH]c2ncc(-c3ccc(CC(=O)Nc4cc(C(C)(C)C(F)(F)F)on4)cc3)cc12 [Example 35, 2-(4-(3-methoxy-1H-pyrazolo[3,4-b]pyridin-5-yl)phenyl)-N-(5-(1,1,1-trifluoro-2-methylpropan-2-yl)isoxazol-3-yl)acetamide] | < 10
8 | COc1cc(OC)c2cc(-c3ccc(CC(=O)Nc4cc(C5(C(F)(F)F)CC5)on4)c(F)c3)cnc2c1 [Example 36, 2-(4-(5,7-dimethoxyquinolin-3-yl)-2-fluorophenyl)-N-(5-(1-(trifluoromethyl)cyclopropyl)isoxazol-3-yl)acetamide] | < 10
9 | CC(C)(C)c1cc(NC(=O)Cc2ccc(-c3cnc4[nH]nc(C#N)c4c3)cc2)no1 [Example 37, N-(5-(tert-butyl)isoxazol-3-yl)-2-(4-(3-cyano-1H-pyrazolo[3,4-b]pyridin-5-yl)phenyl)acetamide] | < 10
10 | CC(C)(C)c1cc(NC(=O)Cc2ccc(-c3cnc4[nH]nc(Cl)c4c3)cc2)no1 [Example 38, N-(5-(tert-butyl)isoxazol-3-yl)-2-(4-(3-chloro-1H-pyrazolo[3,4-b]pyridin-5-yl)phenyl)acetamide] | < 10
11 | CCOc1n[nH]c2ncc(-c3ccc(CC(=O)Nc4cc(C(C)(C)C(F)(F)F)on4)cc3)cc12 [Example 39, 2-(4-(3-ethoxy-1H-pyrazolo[3,4-b]pyridin-5-yl)phenyl)-N-(5-(1,1,1-trifluoro-2-methylpropan-2-yl)isoxazol-3-yl)acetamide] | < 10
12 | Cc1n[nH]c2ncc(-c3ccc(CC(=O)Nc4cc(C(C)(C)C)on4)cc3)cc12 [Example 40, N-(5-(tert-butyl)isoxazol-3-yl)-2-(4-(3-methyl-1H-pyrazolo[3,4-b]pyridin-5-yl)phenyl)acetamide] | < 10
13 | CC(C)(c1cc(NC(=O)Cc2ccc(-c3cnc4[nH]nnc4c3)cc2)no1)C(F)(F)F [Example 41, 2-(4-(3H-[1,2,3]triazolo[4,5-b]pyridin-6-yl)phenyl)-N-(5-(1,1,1-trifluoro-2-methylpropan-2-yl)isoxazol-3-yl)acetamide] | < 10
14 | COc1cc2ncc(-c3ccc(CC(=O)Nc4cc(C5(C(F)(F)F)CC5)on4)cc3F)nc2cc1OC [Example 42, 2-(4-(6,7-dimethoxyquinoxalin-2-yl)-3-fluorophenyl)-N-(5-(1-(trifluoromethyl)cyclopropyl)isoxazol-3-yl)acetamide] | < 10
15 | COc1cc2ncc(-c3ccc(CC(=O)Nc4cc(C(C)(C)C)on4)c(F)c3)nc2cc1OC [Example 43, N-(5-(tert-butyl)isoxazol-3-yl)-2-(4-(6,7-dimethoxyquinoxalin-2-yl)-2-fluorophenyl)acetamide] | < 10
16 | CC(C)(c1cc(NC(=O)Cc2ccc(-c3cnc4[nH]ncc4c3)cc2)no1)C(F)(F)F [Example 44, 2-(4-(1H-pyrazolo[3,4-b]pyridin-5-yl)phenyl)-N-(5-(1,1,1-trifluoro-2-methylpropan-2-yl)isoxazol-3-yl)acetamide] | < 10
17 | CN(C)C(=O)c1n[nH]c2ncc(-c3ccc(CC(=O)Nc4cc(C(C)(C)C)on4)cc3)cc12 [Example 45, 5-(4-(2-((5-(tert-butyl)isoxazol-3-yl)amino)-2-oxoethyl)phenyl)-N,N-dimethyl-1H-pyrazolo[3,4-b]pyridine-3-carboxamide] | < 10

Row | SMILES | IC50 [nM]
18 | COCCOc1n[nH]c2ncc(-c3ccc(CC(=O)Nc4cc(C(C)(C)C(F)(F)F)on4)cc3)cc12 [Example 47, 2-(4-(3-(2-methoxyethoxy)-1H-pyrazolo[3,4-b]pyridin-5-yl)phenyl)-N-(5-(1,1,1-trifluoro-2-methylpropan-2-yl)isoxazol-3-yl)acetamide] | < 10
19 | CC(C)(c1cc(NC(=O)Cc2ccc(-c3cnc4[nH]nc(OC5CCNCC5)c4c3)cc2)no1)C(F)(F)F [Example 48, 2-(4-(3-(piperidin-4-yloxy)-1H-pyrazolo[3,4-b]pyridin-5-yl)phenyl)-N-(5-(1,1,1-trifluoro-2-methylpropan-2-yl)isoxazol-3-yl)acetamide formate salt] | < 10
20 | CN(C)C(=O)c1cc2cc(-c3ccc(CC(=O)Nc4cc(C(C)(C)C)on4)cc3)cnc2[nH]1 [Example 49, 5-(4-(2-((5-(tert-butyl)isoxazol-3-yl)amino)-2-oxoethyl)phenyl)-N,N-dimethyl-1H-pyrrolo[2,3-b]pyridine-2-carboxamide] | < 10
21 | CC(C)(C)c1cc(NC(=O)Cc2ccc(-c3cnc4[nH]c(CO)cc4c3)cc2)no1 [Example 50, N-(5-(tert-butyl)isoxazol-3-yl)-2-(4-(2-(hydroxymethyl)-1H-pyrrolo[2,3-b]pyridin-5-yl)phenyl)acetamide] | < 10
22 | Cc1n[nH]c2ncc(-c3ccc(CC(=O)Nc4cc(C(C)(C)C)on4)c(F)c3)cc12 [Example 51, N-(5-(tert-butyl)isoxazol-3-yl)-2-(2-fluoro-4-(3-methyl-1H-pyrazolo[3,4-b]pyridin-5-yl)phenyl)acetamide] | < 10
23 | CN(C)Cc1cc2cc(-c3ccc(CC(=O)Nc4cc(C(C)(C)C)on4)cc3)cnc2[nH]1 [Example 52, N-(5-(tert-butyl)isoxazol-3-yl)-2-(4-(2-((dimethylamino)methyl)-1H-pyrrolo[2,3-b]pyridin-5-yl)phenyl)acetamide] | < 10
24 | COc1n[nH]c2ncc(-c3ccc(CC(=O)Nc4cc(C5(C(F)(F)F)CC5)on4)c(F)c3)cc12 [Example 53, 2-(2-fluoro-4-(3-methoxy-1H-pyrazolo[3,4-b]pyridin-5-yl)phenyl)-N-(5-(1-(trifluoromethyl)cyclopropyl)isoxazol-3-yl)acetamide] | < 10
25 | CNCc1c[nH]c2ncc(-c3ccc(CC(=O)Nc4cc(C(C)(C)C)on4)cc3)cc12 [Example 54, N-(5-(tert-butyl)isoxazol-3-yl)-2-(4-(3-((methylamino)methyl)-1H-pyrrolo[2,3-b]pyridin-5-yl)phenyl)acetamide] | 10 to 20
26 | CC(C)(C)c1cc(NC(=O)Cc2ccc(-c3cnc4[nH]nc(CO)c4c3)cc2F)no1 [Example 55, N-(5-(tert-butyl)isoxazol-3-yl)-2-(2-fluoro-4-(3-(hydroxymethyl)-1H-pyrazolo[3,4-b]pyridin-5-yl)phenyl)acetamide] | < 10
27 | O=C(Cc1ccc(-c2cnc3[nH]ncc3c2)cc1F)Nc1cc(C2(C(F)(F)F)CCC2)on1 [Example 56, 2-(2-Fluoro-4-(1H-pyrazolo[3,4-b]pyridin-5-yl)phenyl)-N-(5-(1-(trifluoromethyl)cyclobutyl)isoxazol-3-yl)acetamide] | < 10
28 | CNCc1n[nH]c2ncc(-c3ccc(CC(=O)Nc4cc(C(C)(C)C)on4)c(F)c3)cc12 [Example 57, N-(5-(tert-butyl)isoxazol-3-yl)-2-(2-fluoro-4-(3-((methylamino)methyl)-1H-pyrazolo[3,4-b]pyridin-5-yl)phenyl)acetamide] | < 10
29 | CN(C)Cc1n[nH]c2ncc(-c3ccc(CC(=O)Nc4cc(C(C)(C)C)on4)c(F)c3)cc12 [Example 58, N-(5-(tert-butyl)isoxazol-3-yl)-2-(4-(3-((dimethylamino)methyl)-1H-pyrazolo[3,4-b]pyridin-5-yl)-2-fluorophenyl)acetamide] | < 10
30 | CN(C)Cc1c[nH]c2ncc(-c3ccc(CC(=O)Nc4cc(C(C)(C)C)on4)cc3)cc12 [Example 59, N-(5-(tert-butyl)isoxazol-3-yl)-2-(4-(3-((dimethylamino)methyl)-1H-pyrrolo[2,3-b]pyridin-5-yl)phenyl)acetamide formate salt] | < 10
31 | CC(C)(C)c1cc(NC(=O)Cc2ccc(-c3cnc4[nH]cc(CO)c4c3)cc2)no1 [Example 60, N-(5-(tert-butyl)isoxazol-3-yl)-2-(4-(3-(hydroxymethyl)-1H-pyrrolo[2,3-b]pyridin-5-yl)phenyl)acetamide] | < 10
32 | CN(C)c1n[nH]c2ncc(-c3ccc(CC(=O)Nc4cc(C5(C(F)(F)F)CC5)on4)c(F)c3)cc12 [Example 61, 2-(4-(3-(dimethylamino)-1H-pyrazolo[3,4-b]pyridin-5-yl)-2-fluorophenyl)-N-(5-(1-(trifluoromethyl)cyclopropyl)isoxazol-3-yl)acetamide] | < 10
33 | CC(C)(C)c1cc(NC(=O)Cc2ccc(-c3cnc4[nH]ccc4c3)cc2)on1 [Example 71, 2-(4-(1H-pyrrolo[2,3-b]pyridin-5-yl)phenyl)-N-(3-(tert-butyl)isoxazol-5-yl)acetamide] | < 10
